In US11712443B2, “17α-monoesters and 17α,21-diesters of cortexolone for use in the treatment of tumors” (COSMO TECHNOLOGIES LTD., priority 2014, dated 2023):
Like-named read-outs stand apart in the source and are kept apart here.

Tests used:
MCF7 = test: In vitro proliferation / cytotoxic assay on breast cancer cells (cell titer glo); settings: MCF7
Description: For the cytotoxic assay: cells seeded in 96 well flat bottom culture plates in media containing charcoal stripped serum. After 24 hours test compounds were added to the cells. DMSO was used as the vehicle negative control and RU486 as the positive control. After 72 hours incubation cell were harvested, lysed and viability determined using the cell titer glow assay for viability.

BxPC3 = test: In vitro proliferation, larger cancer cell line panel
resting PBMC = test: IC50 on resting PBMC (quiescent, non-dividing cells); assay type: cell-based, human
Description: The ratio from IC50 of the compounds on peripheral blood mononuclear cells (PBMC) and the IC50 on cancer cell lines constitute the Therapeutic Index and show what is the safer compound to be tested.
(§2) The IC^50 in PBMC were tested in 2 different activation status:
resting—quiescent, non-dividing cells
(§3) IC50 of the compounds was determined on fresh cells isolated from human blood (PBMC). The compounds toxicity was determined as follow: Therapeutic Index=Safety/Potency=IC50 stimulated PBMC_/IC50 cancer cell

[1] = tested on: MiaPaca-2 pancreatic tumor xenograft; test: Human pancreatic tumor xenograft in nude mice, subcutaneous treatment; assay type: in vivo
Description: The test was carried out comparing the anti-tumor activity of cortexolone 17α-benzoate at two different dosages (8.0 mg/kg, corresponding approximately at 230 μM, and 40 mg/kg, corresponding approximately at 1150 μM), versus the vehicle (i.e. 0.4% (v/v) tween 80 and 0.5% (w/v) carboxymethylcellulose in normal saline) and versus the comparator Cyproterone Acetate at two different dosages (7.4 mg/kg and 37 mg/kg).
1×10^6 MiaPaca-2 cells suspended in matrigel were subcutaneously injected into 6 week old athymic nude mice.
The treatment with the tested compounds, with the vehicle and with the comparative compound, was initiated after the tumor volume has reached 50 mm3 after transplantation. All compounds were injected 100 μL/mouse subcutaneously of low dose solution (approximately 230 μM) or 100 μL/mouse of high dose solution (approximately 1150 μM) of cortexolone 17α-benzoate, vehicle and cyproterone acetate, respectively. Compounds and controls were administered subcutaneously daily for 28 days.
Tumors were measured every 4 days with a digital caliper.
The results are plotted in FIG. 1 as average change in tumor volume relative to the start of treatment. Tumor volume was calculated according to the formula 0.5236(r1)^2(r2) where r1<r2.
The test was carried out comparing the anti-tumor activity of cortexolone 17α-valerate-21-propionate (CB-03-10) at two different dosages (approximately 8.6 mg/kg and 43 mg/kg) versus the vehicle (i.e. 0.4% (v/v) tween 80 and 0.5% (w/v) carboxymethylcellulose in normal saline) and versus the comparator Cyproterone Acetate at two different dosages (7.4 mg/kg and 37 mg/kg).
The treatment with the tested compound, with the vehicle and with the comparative compound was initiated after the tumor has reached a volume of 50 mm3 after implantation, injecting subcutaneously 100 μL/mouse of low dose solution (approximately 230 μM) or 100 μL/mouse of high dose solution (approximately 1150 μM) of cortexolone 17α-valerate-21-propionate (CB-03-10), vehicle and cyproterone acetate, respectively. Compounds and controls were administered subcutaneously daily for 28 days.
The results are plotted in FIG. 2 as average change in tumor volume relative to the start of treatment. Tumor volume was calculated according to the formula 0.5236(r1)^2(r2) where r1<r2.
CPA a well-known anti-androgen was used as control. Briefly 1×10^6 MiaPaca2 cells suspended in matrigel were subcutaneously (SC) injected into 6 week old male athymic nude mice. Tumors were measured every 4 days with a digital caliper. Tumor volume was calculated according to the formula: 0.5236(r1)2(r2) where r1<r2. Treatment with CB-03-10 and controls compounds was initiated after the tumor had reached 50 mm3. Compounds diluted in DMSO/2-hydroxypropyl b-cyclodextrin (vehicle) were injected subcutaneously (SC) daily (100 μL/mouse) at the concentration of 40 mg/Kg daily for 28 consecutive days.

PC3 = test: ATP-dependent proliferation/viability assay (Cell Titer Glo), 3 days; settings: PC3
Description: (§1) The experiment was performed to test and to define the antitumor activity in vitro of cortexolone 17α-benzoate on LNCaP (AR+) and PC3 (AR^−), representative of Prostatic cancer cell lines with Androgen Receptor (AR) positive or negative expression, respectively. The experimental method consisted of: • 1. […] After 24 hours, 10 nM DHT (dihydrotestosterone) with or without anti-androgen compounds, or DMSO vehicle (negative control) was added to the cultures. • 3.
as §1, with “define” for “define the”, “17α-valerate-21-propionate (CB-03-10)” for “17α-benzoate”, “AR” for “Androgen Receptor (AR)”

LNCaP = test: as above; settings: LNCaP
Description: as §1
as §1, with “define” for “define the”, “17α-valerate-21-propionate (CB-03-10)” for “17α-benzoate”, “AR” for “Androgen Receptor (AR)”

stimulated PBMC = test: IC50 on stimulated PBMC (actively dividing cells)
Description: as §2
stimulated—actively dividing cells
as §3

Panc1 = test: ATP-dependent proliferation/viability assay (Cell Titer Glo), 3 days; settings: for TI on Resting PBMC: IC50 resting PBMC / IC50 Panc1; for TI on Stimulated PBMC: IC50 stimulated PBMC / IC50 Panc1
MiaPaca2 = test: as above; settings: for TI on Resting PBMC: IC50 resting PBMC / IC50 MiaPaca2; for TI on Stimulated PBMC: IC50 stimulated PBMC / IC50 MiaPaca2
HT29 [2] = test: In vitro proliferation, larger cancer cell line panel; settings: HT29
HT29 [3] = test: MTT colorimetric assay, 72 h; assay type: cell-based; settings: for Inhibition (%) on HT29: 72 h, MTT; for Therapeutic Index (TI), Resting PBMC: IC50 resting PBMC / IC50 HT29; for Therapeutic Index (TI), Stimulated PBMC: IC50 stimulated PBMC / IC50 HT29
Description: The experiment was performed to test and define anticancer activity in vitro of Cortexolone 17α-benzoate and cortexolone 17α-valerate-21-propionate on cell lines representatives of epithelial intestinal tumors, namely HT29. The experiment method consisted in: • 1. Monolayer HT-29 cells were plated in: 96-wells plates at the density of 2×10^4 cells/mL. The cells plated were kept at 37° C. in 5% CO2 and left to attach for 24 h. • 2. […] After 72 h of treatment, the MTT colorimetric assay was performed.

[4] = Experiment 1, 0 = higher toxicity in PBMC

## C[C@]12CCC(=O)C=C1CC[C@@H]1[C@@H]2CC[C@@]2(C)[C@H]1CC[C@]2(OC(=O)c1ccccc1)C(=O)CO [CB-03-06, cortexolone 17α-benzoate]
MCF7; Table IV
  Therapeutic Index = IC50 resting PBMC/IC50 cancer cell: 4
MCF7; Table VII
  Therapeutic Index = IC50 stimulated PBMC/IC50 cancer cell: 4
BxPC3; Table IV
  Therapeutic Index = IC50 resting PBMC/IC50 cancer cell: 3
BxPC3; Table VII
  Therapeutic Index = IC50 stimulated PBMC/IC50 cancer cell: 3
Resting PBMC; Example 7 Experiment 1
  IC50: 100 µM
Resting PBMC; Example 7 Experiment 2
  IC50: 85 µM
[1]; Example 5, high dose 40 mg/kg (approximately 1150 μM, 100 μL/mouse) SC daily 28 days
  pancreatic tumor size increase relative to size when treatment was initiated: less than 5 fold
[1]; Examples 5 and 6, FIG. 3, same animal model
  in vivo antitumor activity compared with Cyproterone Acetate: antitumor activity higher than Cyproterone Acetate
PC3; Table IV
  Therapeutic Index = IC50 resting PBMC/IC50 cancer cell: 3
PC3; Table VII
  Therapeutic Index = IC50 stimulated PBMC/IC50 cancer cell: 3
LNCaP; Table IV
  Therapeutic Index = IC50 resting PBMC/IC50 cancer cell: 8
LNCaP; Table VII
  Therapeutic Index = IC50 stimulated PBMC/IC50 cancer cell: 8
Stimulated PBMC; PBMC Stim, healthy lymphocyte, Table IV
  Therapeutic Index = IC50 resting PBMC/IC50 cancer cell: 1
Stimulated PBMC; average across the 7 cancer cell lines, Table VII
  Therapeutic Index = IC50 stimulated PBMC/IC50 cancer cell, AVERAGE: 5
Stimulated PBMC; read-out: IC50 on Stimulated PBMC, Example 7 Experiment 1
  IC50: 113 µM
Stimulated PBMC; read-out: IC50 on Stimulated PBMC, Example 7 Experiment 2
  IC50: 97 µM
Stimulated PBMC; read-out: In vitro proliferation IC50, PBMC STIMULATED, healthy lymphocyte, Table IV
  IC50: 97 µM
Panc1; [4]
  TI on Resting PBMC: 4
Panc1; Experiment 2
  TI on Resting PBMC: 3
  TI on Stimulated PBMC: 3
Panc1; Experiment 1, 0 = higher toxicity in PBMC than in the cancer cell lines
  TI on Stimulated PBMC: 5
Panc1; Panc1, Table IV
  Therapeutic Index = IC50 resting PBMC/IC50 cancer cell: 3
Panc1; Panc1, Table VII
  Therapeutic Index = IC50 stimulated PBMC/IC50 cancer cell: 3
MiaPaca2; [4]
  TI on Resting PBMC: 6
  TI on Stimulated PBMC: 7
MiaPaca2; Experiment 2
  TI on Resting PBMC: 4
  TI on Stimulated PBMC: 5
MiaPaca2; MiaPaca2, Table IV
  Therapeutic Index = IC50 resting PBMC/IC50 cancer cell: 5
MiaPaca2; MiaPaca2, Table VII
  Therapeutic Index = IC50 stimulated PBMC/IC50 cancer cell: 5
HT29 [2]; Table IV
  Therapeutic Index = IC50 resting PBMC/IC50 cancer cell: 6
HT29 [2]; Table VII
  Therapeutic Index = IC50 stimulated PBMC/IC50 cancer cell: 6
HT29 [2]; read-out: In vitro proliferation IC50, Table IV
  IC50: 10 µM
HT29 [3]; 0.8 micromolar
  Inhibition (%) on HT29: −1.55%
HT29 [3]; 4 micromolar
  Inhibition (%) on HT29: 20.40%
HT29 [3]; 20 micromolar
  Inhibition (%) on HT29: 53.60%
HT29 [3]; 100 micromolar
  Inhibition (%) on HT29: 92.24%
HT29 [3]; 500 micromolar
  Inhibition (%) on HT29: 92.31%
HT29 [3]; Example 9 Experiment 1
  Therapeutic Index (TI), Resting PBMC: 6
  Therapeutic Index (TI), Stimulated PBMC: 7
HT29 [3]; Example 9 Experiment 2
  Therapeutic Index (TI), Resting PBMC: 5
  Therapeutic Index (TI), Stimulated PBMC: 6
